Measurements: patent US20050258288A1, “High pressure media milling system and process of forming particles” (E. I. du Pont de Nemours and Company, priority 2003, published 2005)
Values belong to the compound of their own block, whether it stands above or below them.

Key:
[1] = Particle size of milled product by Malvern Mastersizer 2000 (laser diffraction); type: physicochemical; conditions: for X10 / X50 / X90 (90% cumulative undersize): Example 4: piroxicam milled in supercritical CO2, 120 min, by collection method
[2] = Surface area measurements (BET) of milled product; type: physicochemical; conditions: Example 4: piroxicam milled in supercritical CO2; for BET: Table 2
Text: The yield of the run with the depressurization was 10.7 grams, while in the case of the nozzle dispersion only 2.4 grams were recovered.

[3] = Example 2: ibuprofen + sodium lauryl sulfate milled in supercritical CO2, ceramic media, 60 min
[4] = Example 1: lactose + oleic acid milled in supercritical CO2, nylon media, 60 min
[5] = Example 3: lactose mono hydrate + Span85 milled in liquified HFC 134a, 1000 psi, 60 min

X10 [1]: 3.00 micron
X50 [1]: 5.70 micron
X90 (90% cumulative undersize) [1]: 10.9 micron
BET [2]: 11.8 sq. m/g
surface area (BET), specific surface area ([2]; listed as product collected in the filter before depressurization): 11.8 sq meter per gram
SMILES: CN1C(C(=O)Nc2ccccn2)=C(O)c2ccccc2S1(=O)=O [Test 1, piroxicam]

X10 [1]: 0.08 micron
X50 [1]: 0.26 micron
X90 (90% cumulative undersize) [1]: 2.04 micron
BET [2]: 9.4 sq. m/g
surface area (BET), specific surface area ([2]; listed as nozzle dispersed material): 9.7 sq meter per gram
SMILES: CN1C(C(=O)Nc2ccccn2)=C(O)c2ccccc2S1(=O)=O [Test 2, piroxicam]

10% cumulative undersize [1, 3]: 1.097 micron
median size [1, 3]: 2.6 micron
90% cumulative undersize ([1]; Example 2: ibuprofen + sodium lauryl sulfate milled in supercritical CO2, due to agglomeration): 219 microns
SMILES: CC(C)Cc1ccc(C(C)C(=O)O)cc1 (stereo not shown) [ibuprofen]

10% cumulative undersize [1, 4]: 3.0 micron
90% cumulative undersize [1, 4]: 796 micron
median particle size ([1]; Example 1: lactose + oleic acid milled in supercritical CO2, nylon media, 60 min, collected in high pressure filter): 75.889 microns
10% cumulative undersize [1, 5]: 1.059 micron
90% cumulative undersize [1, 5]: 553 micron
median particle size [1, 5]: 4.4 microns
SMILES: OC[C@H]1O[C@@H](O[C@H]2[C@H](O)[C@@H](O)C(O)O[C@@H]2CO)[C@H](O)[C@@H](O)[C@H]1O (stereo partly shown) [lactose]
